In ChEMBL document CHEMBL4351021, “Design, synthesis and biological evaluation of novel FFA1/GPR40 agonists: New breakthrough in an old scaffold” (Eur J Med Chem, 2019):
Active and inactive are the calls of the source. The rule behind the calls is not given here.

Legend:
[1] = Lipophilicity, logD of compound in 1-octanol and PBS mixture in pH 7.4 at 100 uM incubated for 24 under shaking condition by HPLC analysis; type: physicochemical; conditions: 1-octanol/PBS
[2] = biological target: T1, Free fatty acid receptor 1 (Homo sapiens, UniProt O14842); test: Agonist activity at FFA1 receptor (unknown origin) stably expressed in CHO cells assessed as increase in calcium flux by Fluo4-AM based FLIPR assay; type: functional, cell-based
Rattus norvegicus [3] = test: Antidiabetic activity in Sprague-Dawley rat assessed as change in blood glucose level in fasting state at 10 mg/kg, po pretreated for 1 hr followed by glucose challenge and measured up to 120 mins by OGTT; type: functional, organism-based
Hepatocyte [4] = test: Hepatotoxicity in sandwich-cultured Sprague-Dawley rat hepatocytes assessed as decrease in accumulation of d8-TCA at 25 uM incubated for 15 mins followed by d8-TCA addition and measured after 15 mins by LC-MS/MS analysis; type: toxicity, cell-based; conditions: 0.25 h
Hepatocyte [5] = test: Hepatotoxicity in sandwich-cultured Sprague-Dawley rat hepatocytes assessed as inhibition of hepatobiliary transport by measuring biliary excretion index at 25 uM incubated for 15 mins followed by d8-TCA addition and measured after 15 mins by LC-MS/MS analysis; type: toxicity, cell-based; conditions: 0.25 h
[6] = biological target: T1, Free fatty acid receptor 1; test: Potency index, ratio of EC50 for 2-(4-(([…]3-yl)methoxy)-2-fluorophenoxy)acetic acid to EC50 for test compound for Agonist activity at FFA1 receptor (unknown origin) stably expressed in CHO cells assessed as increase in calcium flux by Fluo4-AM based FLIPR assay; type: functional, cell-based
Mus musculus [7] = test: Antidiabetic activity in ICR mouse assessed as reduction in blood glucose level at 20 mg/kg, po pretreated for 30 mins followed by glucose challenge and measured up to 120 mins by OGTT; type: functional, organism-based
Mus musculus [8] = test: Antidiabetic activity in ICR mouse assessed as flattening of glucose curve after 1 hr at 20 mg/kg, po pretreated for 30 mins followed by glucose challenge and measured up to 120 mins by OGTT; type: functional, organism-based
[9] = Clearance in Sprague-Dawley rat at 10 mg/kg, po measured for […] by LC-MS/MS analysis; type: ADME, organism-based; conditions: in vivo
[10] = Half life in Sprague-Dawley rat at 10 mg/kg, po measured for […] by LC-MS/MS analysis; type: ADME, organism-based; conditions: in vivo
[11] = Cmax in Sprague-Dawley rat at 10 mg/kg, po measured for […] by LC-MS/MS analysis; type: ADME, organism-based; set-up: dose 10 mg/kg, route oral; conditions: in vivo
[12] = AUC (0 to 24 hrs) in Sprague-Dawley rat at 10 mg/kg, po measured for […] by LC-MS/MS analysis; type: ADME, organism-based; set-up: time < 24 hr, dose 10 mg/kg, route oral; conditions: in vivo; for AUC: 24 h
Rattus norvegicus [13] = test: Antidiabetic activity in Sprague-Dawley rat assessed as increase in plasma insulin level at 10 mg/kg, po administrated and measured up to 120 mins by ELISA; type: functional, organism-based
[14] = Acute toxicity in ICR mouse assessed as induction of side effects at 5 to 500 mg/kg, po daily for 7 days; type: organism-based; conditions: in vivo, 168 h
Mus musculus [15] = test: Antidiabetic activity in HFD fed/STZ-treated C57BL/6 mouse assessed as decrease in blood glucose at 20 mg/kg, po pretreated for 30 mins followed by glucose challenge and measured after up to 120 mins by OGTT; type: functional, organism-based
Mus musculus [16] = test: Antidiabetic activity in ICR mouse assessed as increase in GLP-1 secretion at 20 mg/kg, po pretreated with DPP4 inhibitor linagliptin for 1 hr followed by compound addition and measured after 4 hrs by ELISA; type: functional, organism-based
Rattus norvegicus [17] = test: Antidiabetic activity in Sprague-Dawley rat assessed as increase in plasma insulin level at 10 mg/kg, po pretreated for 1 hr followed by glucose challenge and measured at 0 mins by ELISA; type: functional, organism-based
[18] = Acute toxicity in ICR mouse assessed as change in AST level up to 500 mg/kg, po daily for 7 days; type: organism-based; conditions: in vivo, 168 h
Rattus norvegicus [19] = test: Antidiabetic activity in Sprague-Dawley rat assessed as change in blood glucose level at 10 mg/kg, po pretreated for 1 hr followed by glucose challenge by OGTT; type: functional, organism-based; conditions: TDE = time-dependent effect
[20] = Acute toxicity in ICR mouse assessed as change in ALT level up to 500 mg/kg, po daily for 7 days; type: organism-based; conditions: in vivo, 168 h
Rattus norvegicus [21] = test: Antidiabetic activity in Sprague-Dawley rat assessed as change plasma in insulin level at 10 mg/kg, po pretreated for 1 hr followed by glucose challenge by ELISA; type: functional, organism-based; conditions: TDE = time-dependent effect
Rattus norvegicus [22] = test: Antidiabetic activity in Sprague-Dawley rat assessed as suppression in blood glucose excursion at 10 mg/kg, po pretreated for 1 hr followed by glucose challenge and measured up to 120 mins by OGTT; type: functional, organism-based
[23] = Acute toxicity in ICR mouse assessed as change in liver morphology at 5 to 500 mg/kg, po daily for 7 days by H and E staining based histopathological analysis; type: organism-based; conditions: in vivo, 168 h
Mus musculus [24] = test: Antidiabetic activity in ICR mouse assessed as glucose-stimulated change in GLP-1 secretion at 20 mg/kg, po pretreated for 0.5 hrs followed by glucose challenge and measured after 5 mins by ELISA; type: functional, organism-based

T1 sequence (O14842 whole entry): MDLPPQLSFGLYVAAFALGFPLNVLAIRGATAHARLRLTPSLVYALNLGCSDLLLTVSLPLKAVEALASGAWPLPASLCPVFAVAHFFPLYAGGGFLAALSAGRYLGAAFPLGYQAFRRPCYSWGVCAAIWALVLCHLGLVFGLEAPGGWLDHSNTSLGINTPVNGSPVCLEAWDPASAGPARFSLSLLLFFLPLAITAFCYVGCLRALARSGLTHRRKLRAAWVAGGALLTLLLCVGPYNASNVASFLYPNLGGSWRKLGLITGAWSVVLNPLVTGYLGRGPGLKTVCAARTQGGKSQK

O=C(O)COc1ccc(NCc2cccc(-c3ccccc3)c2)cc1F
logD at 100 µM [1]: 2.25 | EC50 [2]: 58.5 nM

Cc1cc(O)ccc1-c1cccc(CNc2ccc(OCC(=O)O)c(F)c2)c1
logD at 100 µM [1]: 1.85 | EC50 [2]: 69.6 nM

COc1ccc(Cl)cc1C(=O)NCCc1ccc(S(=O)(=O)NC(=O)NC2CCCCC2)cc1
Activity (Rattus norvegicus [3]): Active

Cc1cc(OCCO)ccc1-c1cccc(CNc2ccc(OCC(=O)O)c(F)c2)c1
logD at 100 µM [1]: 1.65 | EC50 [2]: 36.1 nM | Activity (Hepatocyte [4]): Toxic | Activity_index (Hepatocyte [5]): 14.3%

Cc1cc(OCCCS(C)(=O)=O)cc(C)c1-c1cccc(CNc2ccc(OCC(=O)O)c(F)c2)c1
logD at 100 µM [1]: 1.73 | EC50 [2]: 59.8 nM

COc1ccccc1-c1cccc(CNc2ccc(OCC(=O)O)c(F)c2)c1
EC50 [2]: 536 nM

Cc1ccc(-c2cccc(CNc3ccc(OCC(=O)O)c(F)c3)c2)c(Cl)c1
logD at 100 µM [1]: 3.24 | EC50 [2]: 22.5 nM

COCCOc1cc(C)c(-c2cccc(CNc3ccc(OCC(=O)O)c(F)c3)c2)c(C)c1
logD at 100 µM [1]: 2.47 | EC50 [2]: 51.6 nM

CCOc1cc(C)c(-c2cccc(CNc3ccc(OCC(=O)O)c(F)c3)c2)c(C)c1
logD at 100 µM [1]: 3.04 | EC50 [2]: 24.2 nM | Ratio EC50 [6]: 3 | Activity (Mus musculus [7]): Active

O=C(O)COc1ccc(NCc2ccc(Cl)c(-c3ccccc3)c2)cc1F
logD at 100 µM [1]: 2.74 | EC50 [2]: 51.7 nM

CCCOc1cc(C)c(-c2cccc(CNc3ccc(OCC(=O)O)c(F)c3)c2)c(C)c1
logD at 100 µM [1]: 3.59 | EC50 [2]: 38.7 nM

O=C(O)COc1ccc(NCc2cccc(-c3ccccc3Cl)c2)cc1F
logD at 100 µM [1]: 2.71 | EC50 [2]: 19.3 nM | Activity (Mus musculus [7]): Active

CCOc1ccc(-c2cccc(CNc3ccc(OCC(=O)O)c(F)c3)c2)c(C)c1
logD at 100 µM [1]: 2.83 | EC50 [2]: 11.6 nM | Activity (Hepatocyte [4]): Toxic | Activity (Mus musculus [7]): Active | Activity_index (Hepatocyte [5]): 19.3%

Cc1ccccc1-c1cccc(CNc2ccc(OCC(=O)O)c(F)c2)c1
logD at 100 µM [1]: 2.41 | Activity (Mus musculus [8]): Active | CL/F ([9]; Sprague-Dawley): 0.109 mL/min/kg | half-life [10]: 5.42 h | Activity (Hepatocyte [4]): Toxic | Cmax [11]: 187 µg/mL | AUC(0-t) at 24 h ([12]; Sprague-Dawley): 2870 µg·h/mL | Activity (Mus musculus [7]): Active | Activity_index (Hepatocyte [5]): 12.3%

N#Cc1ccccc1-c1cccc(CNc2ccc(OCC(=O)O)c(F)c2)c1
EC50 [2]: 729 nM

CCOc1cc(C)c(-c2cccc(CNc3ccc(OCC(=O)O)cc3)c2)c(C)c1
EC50 [2]: 197 nM

O=C(O)COc1ccc(NCc2cccc(-c3ccccc3C(F)(F)F)c2)cc1F
Activity (Rattus norvegicus [13]): inactive | Activity [14]: Non-Toxic | logD at 100 µM [1]: 3.13 | Activity (Rattus norvegicus [3]): inactive | Activity (Mus musculus [15]): Active | EC50 [2]: 15.7 nM | Activity (Mus musculus [16]): Active | Activity (Rattus norvegicus [17]): Active | CL [9]: 0.124 mL/min/kg | Activity [18]: Non-Toxic | Activity (Rattus norvegicus [19]): Tde | half-life [10]: 4.84 h | Activity (Hepatocyte [4]): Toxic | Cmax [11]: 322 µg/mL | Activity [20]: Non-Toxic | Activity (Rattus norvegicus [21]): Tde | AUC [12]: 3909.33 µg·h/mL | Activity (Rattus norvegicus [22]): Active | Activity [23]: Non-Toxic | Activity (Mus musculus [7]): Active | Activity_index (Hepatocyte [5]): 29.6% | Activity (Mus musculus [24]): inactive

Cc1noc(C)c1-c1cccc(CNc2ccc(OCC(=O)O)c(F)c2)c1
EC50 [2]: 225 nM

CCOc1cc(C)c(-c2cccc(COc3ccc(OCC(=O)O)c(F)c3)c2)c(C)c1
logD at 100 µM [1]: 3.61 | EC50 [2]: 69.3 nM

CCOc1cc(C)c(-c2cccc(COc3ccc(NCC(=O)O)c(F)c3)c2)c(C)c1
EC50 [2]: > 1000 nM

CC(C)c1ccccc1-c1cccc(CNc2ccc(OCC(=O)O)c(F)c2)c1
logD at 100 µM [1]: 3.45 | EC50 [2]: 86.2 nM

COCCOc1ccc(-c2cccc(CNc3ccc(OCC(=O)O)c(F)c3)c2)c(C)c1
logD at 100 µM [1]: 2.23 | EC50 [2]: 41.9 nM

O=C(O)COc1ccc(NCc2cccc(-c3ccccc3F)c2)cc1F
logD at 100 µM [1]: 2.36 | EC50 [2]: 36.5 nM

Cc1cc(OCCCS(C)(=O)=O)ccc1-c1cccc(CNc2ccc(OCC(=O)O)c(F)c2)c1
logD at 100 µM [1]: 1.59 | EC50 [2]: 45.6 nM

CO/N=C(\COc1ccc(CNc2ccc(OCC(=O)O)c(F)c2)cc1)c1ccccc1
EC50 [2]: 398 nM

Cc1cc(OCCCS(C)(=O)=O)cc(C)c1-c1cccc(COc2ccc3c(c2)OC[C@H]3CC(=O)O)c1
Activity (Mus musculus [15]): Active | Activity (Mus musculus [16]): inactive | CL [9]: 0.4177 mL/min/kg | half-life [10]: 4.32 h | Activity (Hepatocyte [4]): Toxic | Cmax [11]: 87.4 µg/mL | AUC [12]: 1064.23 µg·h/mL | Activity (Mus musculus [7]): Active | Activity (Mus musculus [24]): inactive

CCCOc1ccc(-c2cccc(CNc3ccc(OCC(=O)O)c(F)c3)c2)c(C)c1
logD at 100 µM [1]: 3.37 | EC50 [2]: 41.3 nM
